US9226917B2, “Photodynamic therapy for conditions of the eye” (Valeant Pharmaceuticals International, Inc., priority 2008, dated 2016)

Assays:
[1] = tested on: AMD and other retinal diseases; conditions: intravitreal injection, published case series; cited from earlier work
[2] = tested on: subfoveal choroidal neovascularization (CNV) due to AMD; assay: RADICAL study: 24-month randomized, controlled trial of vPDT combination regimens versus ranibizumab monotherapy (visual acuity, retreatments, retinal thickness); format: in vivo, human
Description: (§1) The study is a 24-month randomized, controlled trial designed to evaluate 3 combination treatment regimens: (1) very low-fluence vPDT (15 J/cm^2) combined with ranibizumab (0.5 mg) and dexamethasone (0.5 mg); (2) half-fluence vPDT (25 J/cm^2) combined with ranibizumab and dexamethasone; and (3) half-fluence vPDT combined with ranibizumab. These regimens are compared with ranibizumab monotherapy in patients with subfoveal choroidal neovascularization (CNV) due to AMD. Inclusion criteria includes ≧50 years old; naïve to AMD treatment; best-corrected VA (BCVA) letter score of 73-24; subfoveal CNV due to AMD; and lesion size <9 DA. Patients (N=160) are randomly assigned to 1 of the 4 treatment arms at baseline, receive 1 initial treatment, and are to be evaluated for retreatment every month based on novel criteria using OCT and FA. Patients in the ranibizumab monotherapy group receive mandatory dosing at months 1 and 2, and as needed thereafter based on the same retreatment criteria. Patients in the combination therapy groups receive assigned treatment as needed (not more frequently than every 2 months), based on retreatment criteria; if treatment is required in an intervening month, then a ranibizumab injection is given. Study outcomes include efficacy, safety, and number of retreatments.
After their initial randomized study treatment, patients in the combination therapy groups return to the clinic monthly for re-treatment evaluation. Re-treatment criteria are based on optical coherence tomography (OCT) and fluorescein angiography (FA). If OCT central retinal thickness (CRT) is ≧250 μm or is increased >50 μm compared with the lowest previous CRT measurement, then the patient is re-treated.
Combination re-treatment is not administered more frequently than every 2 months. If re-treatment is found to be needed in an intervening month, the patient receives a ranibizumab injection only. After their initial randomized study treatment, patients in the ranibizumab monotherapy group receive mandatory re-treatment at months 1 and 2, and then re-treatment as needed thereafter based on the criteria described above. In all treatment arms, monthly assessments and potential re-treatments continue through 12 months of the study. Between 12 and 24 months, patients attend the clinic at least once every 3 months, or more frequently at the investigator's discretion.
Best-corrected visual acuity is assessed by the ETDRS method at screening, on the day of initial treatment (before treatment), at monthly visits through 6 months, and at the 12-, 18-, and 24-month visits. FA is assessed at screening, at the 3- and 12-month visits, and as required according to re-treatment criteria. OCT is assessed to determine retreatment criteria at every visit. Safety, including intraocular pressure, is also evaluated at every visit.
Study outcomes include visual acuity, CRT, lesion size, number of re-treatments, and safety. The primary efficacy variables are mean number of re-treatments and mean change from baseline in visual acuity score.
Randomization occurs on the day of the first treatment to one of the following groups: • Lucentis monotherapy. • Half-fluence Visudyne-Lucentis (V-L) double therapy. • Half-fluence (25 J/cm^2) Visudyne-Lucentis-Dexamethasone (V-L-D) triple therapy. • Very low-fluence (15 J/cm^2) Visudyne-Lucentis-Dexamethasone (V-L-D) triple therapy.
Treatments occur within 7 days of baseline FA. […]

[3] = RADICAL study: safety / adverse events; format: in vivo, human; conditions: 12 months
Description: as §1, with “Patients in the ranibizumab monotherapy group receive mandatory dosing at months 1 and 2, and as needed thereafter based on the same retreatment criteria. Patients in the combination therapy groups receive assigned treatment as needed (not more frequently than every 2 months), based on retreatment criteria; if treatment is required in an intervening month, then a ranibizumab injection is given. Study outcomes include efficacy, safety, and number of retreatments.” left out
Best-corrected visual acuity is assessed by the ETDRS method at screening, on the day of initial treatment (before treatment), at monthly visits through 6 months, and at the 12-, 18-, and 24-month visits. FA is assessed at screening, at the 3- and 12-month visits, and as required according to re-treatment criteria. OCT is assessed to determine retreatment criteria at every visit. Safety, including intraocular pressure, is also evaluated at every visit. […]

CNV due to AMD = conditions: dosing every 3 months compared to continued monthly dosing, on average, over the following 9 months; cited from earlier work

Row | Substance | mean VA in treated patients [1] | percentage of patients whose vision improved by 3 lines or more ([2]; 12 months) [%] | Mean retreatment rate ([2]; ITT, 12 months, Day 0 treatment excluded) | Mean VA improvement from baseline (letters) ([2]; ITT, month 12) | Mean VA improvement from baseline (letters) ([2]; Per-protocol, 12 months) | Mean retreatment rate ([2]; Per-protocol, 12 months) | Ocular adverse events considered associated with treatment (share of patients) [3] | loss of visual acuity benefit (CNV due to AMD) [letter]
1 | bevacizumab [Avastin] | increase of mean VA |  |  |  |  |  |  | 
2 | ranibizumab [Lucentis monotherapy] |  | 24 | 5.4 | 6.5 | 6.8 | 5.9 | approximately one-fourth | ~5
